# Test results as given in publication PMC6076275, “Novel Arginine-containing Macrocyclic MMP Inhibitors: Synthesis, ^99mTc-labeling, and Evaluation” (Scientific Reports, 2018).
# Where two headings read alike, the source gives them in different places.
# Key:
# rhMMP-13 = target: T1, rhMMP-13 (Homo sapiens, UniProt P45452); assay: MMP inhibition assay, fluorogenic substrate cleavage kinetics; assay type: biochemical
# T1 construct: purchased R&D Systems (Minneapolis, MN, USA)
# Protocol: (§1) MMP inhibition assays were carried out based on the kinetic effects of an inhibitor on the MMP-mediated catalytic cleavage of a fluorogenic substrate, namely Mca-Lys-Pro-Leu-Gly-Leu-Dpa-Ala-Arg-NH2, as reported by others previously[9],[23],[28]. In the first set of studies, the inhibitory effect of RYM was evaluated against 5 activated recombinant human (rh)MMPs, including rhMMP-2, rhMMP-7, rhMMP-9, rhMMP-12, and rhMMP-13.
# (§2) The recombinant human MMPs (rhMMPs) including rhMMP-2, rhMMP-7, rhMMP-9, rhMMP-12, and rhMMP-13 were purchased from R&D Systems (Minneapolis, MN, USA). A buffer consisting of 50 mM Tris, 10 mM CaCl2, 150 mM NaCl, 0.05% Brij-35 (w/v) (pH 7.5, […]) was used for all the MMP assays. A mixture of the rhMMPs (500 ng, 9 µL in assay buffer) and p-aminophenylmercuric acetate (APMA, 1 µL, 10.0 mM in DMSO) was incubated at 37 °C (1 h/rhMMP-2, 2 h/rhMMP-7, 24 h/rhMMP-9, 4 h/rhMMP-12, and 2 h/rhMMP-13) according to the procedures described by R&D Systems. The activated MMPs were diluted to 500 µL in the assay buffer for inhibition assays. The assays were carried out in 96-well black non-binding surface microplates (Fisher Scientific). Seventy microliter (for inhibitor wells) and 80 µL (control wells) of the assay buffer were first added into each well as designed, followed by adding 10 µL (10 ng) of the activated MMP solutions into each well. The inhibitor solutions at 4 different concentrations (10 µL each well) were added into the corresponding inhibitor wells in the microplate which was then swirled at room temperature for 30 min. Ten microliter of the fluorogenic MMP substrate solutions (R&D SYSTEMS®) at 4 different concentrations (20.0, 30.0, 40.0, and 50.0 µM) in assay buffer were added into each well to make a total volume of 100 µL. […] Finally, the competitive inhibition constants (Ki value) were calculated from the mean velocity values, and related substrate (S) and inhibitor (I) concentrations using GraphPad Prism 6 by the following equation for competitive inhibition, where Vmax is the maximal velocity, the KM Michaelis-Menten constant: v=Vmax[S]/KM(1+[I]/Ki)+[S]
# rhMMP-7 = target: T2, rhMMP-7 (Homo sapiens, UniProt P09237); assay: as above; assay type: biochemical; details: mean ± SD of three experiments
# T2 construct: purchased R&D Systems (Minneapolis, MN, USA)
# T2 sequence (P09237 95-267): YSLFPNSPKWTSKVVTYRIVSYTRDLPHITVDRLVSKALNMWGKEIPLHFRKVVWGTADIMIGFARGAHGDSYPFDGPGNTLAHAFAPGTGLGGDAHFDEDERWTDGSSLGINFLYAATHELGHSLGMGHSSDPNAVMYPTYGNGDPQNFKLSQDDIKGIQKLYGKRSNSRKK
# Protocol: as §1, with “rhMMP-13. […] RYM also had potent MMP inhibition with Ki values at nM concentrations.” for “rhMMP-13.”
# The recombinant human MMPs (rhMMPs) including rhMMP-2, rhMMP-7, rhMMP-9, rhMMP-12, and rhMMP-13 were purchased from R&D Systems (Minneapolis, MN, USA). […] The microplate fluorescence was measured at 320 nm (excitation) and 405 nm (emission) wavelengths for 30 min (1.44 min intervals, sensitivity 100, shaking intensity 4 and duration 30 s) by a fluorescent plate reader (BIO-TEK/Synergy HT) to generate the fluorescence kinetic curves and related mean velocity values (v), i.e. relative fluorescence units per min (RFU/min). Finally, the competitive inhibition constants (Ki value) were calculated from the mean velocity values, and related substrate (S) and inhibitor (I) concentrations using GraphPad Prism 6 by the following equation for competitive inhibition, where Vmax is the maximal velocity, the KM Michaelis-Menten constant: v=Vmax[S]/KM(1+[I]/Ki)+[S]
# rhMMP-12 [1] = target: T3, rhMMP-12 (Homo sapiens, UniProt P39900); assay: as above; assay type: biochemical; details: mean ± SD of three experiments
# T3 construct: purchased R&D Systems (Minneapolis, MN, USA)
# T3 sequence (P39900 106-470): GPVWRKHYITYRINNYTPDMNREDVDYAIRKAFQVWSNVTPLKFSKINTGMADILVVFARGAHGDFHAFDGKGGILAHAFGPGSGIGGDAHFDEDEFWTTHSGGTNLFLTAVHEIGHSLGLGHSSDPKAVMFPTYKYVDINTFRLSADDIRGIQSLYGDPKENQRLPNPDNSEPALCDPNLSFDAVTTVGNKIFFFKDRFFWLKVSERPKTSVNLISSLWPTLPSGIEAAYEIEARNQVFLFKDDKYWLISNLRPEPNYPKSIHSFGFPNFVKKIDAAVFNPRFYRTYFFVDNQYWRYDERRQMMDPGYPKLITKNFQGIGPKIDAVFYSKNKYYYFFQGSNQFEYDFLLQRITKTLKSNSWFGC
# Protocol: as §1, with “rhMMP-13. […] RYM also had potent MMP inhibition with Ki values at nM concentrations.” for “rhMMP-13.”
# Next, we evaluated the effect of ^99mTc-labeling on RYM MMP inhibition, using rhMMP-12 as a representative enzyme. A solution of ^99mTc-RYM1 prepared from 2 µg of RYM1 was decayed at −80 °C for two days, lyophilized, and re-dissolved in saline for MMP inhibition assays.
# The recombinant human MMPs (rhMMPs) including rhMMP-2, rhMMP-7, rhMMP-9, rhMMP-12, and rhMMP-13 were purchased from R&D Systems (Minneapolis, MN, USA). […] The microplate fluorescence was measured at 320 nm (excitation) and 405 nm (emission) wavelengths for 30 min (1.44 min intervals, sensitivity 100, shaking intensity 4 and duration 30 s) by a fluorescent plate reader (BIO-TEK/Synergy HT) to generate the fluorescence kinetic curves and related mean velocity values (v), i.e. relative fluorescence units per min (RFU/min). […]
# [2] = background statement, no own test described; cited from earlier work
# [3] = target: Recombinant Human TACE/ADAM17 (Homo sapiens, UniProt P78536); assay: TACE inhibition assay, fluorogenic peptide substrate
# Recombinant Human TACE/ADAM17, sequence (P78536 215-824): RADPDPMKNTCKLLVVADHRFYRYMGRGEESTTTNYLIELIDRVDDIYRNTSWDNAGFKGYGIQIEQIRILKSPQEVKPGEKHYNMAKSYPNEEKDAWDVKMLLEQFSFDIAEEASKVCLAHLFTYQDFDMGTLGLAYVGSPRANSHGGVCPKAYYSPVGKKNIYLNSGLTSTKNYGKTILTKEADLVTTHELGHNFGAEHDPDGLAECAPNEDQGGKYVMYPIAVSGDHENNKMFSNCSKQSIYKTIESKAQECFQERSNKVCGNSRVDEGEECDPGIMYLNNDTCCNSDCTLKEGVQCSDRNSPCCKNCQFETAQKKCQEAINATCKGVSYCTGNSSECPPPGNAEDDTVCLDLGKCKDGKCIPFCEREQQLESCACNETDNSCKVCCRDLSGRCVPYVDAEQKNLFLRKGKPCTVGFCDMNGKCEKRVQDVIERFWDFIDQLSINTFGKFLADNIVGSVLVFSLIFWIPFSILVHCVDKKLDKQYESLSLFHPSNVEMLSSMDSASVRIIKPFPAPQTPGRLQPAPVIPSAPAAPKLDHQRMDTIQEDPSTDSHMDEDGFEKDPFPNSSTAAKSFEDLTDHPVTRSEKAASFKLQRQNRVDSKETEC
# Water solubility = assay type: physicochemical; details: described as good water solubility
# rhMMP-12 [4] = target: T3, rhMMP-12; design: method as in PMID 28360209; details: value marked with citation; cited from earlier work
# rhMMP-2 = target: T4, rhMMP-2 (Homo sapiens, UniProt P08253); assay: MMP inhibition assay, fluorogenic substrate cleavage kinetics; assay type: biochemical; details: mean ± SD of three experiments
# T4 construct: purchased R&D Systems (Minneapolis, MN, USA)
# T4 sequence (P08253 110-660): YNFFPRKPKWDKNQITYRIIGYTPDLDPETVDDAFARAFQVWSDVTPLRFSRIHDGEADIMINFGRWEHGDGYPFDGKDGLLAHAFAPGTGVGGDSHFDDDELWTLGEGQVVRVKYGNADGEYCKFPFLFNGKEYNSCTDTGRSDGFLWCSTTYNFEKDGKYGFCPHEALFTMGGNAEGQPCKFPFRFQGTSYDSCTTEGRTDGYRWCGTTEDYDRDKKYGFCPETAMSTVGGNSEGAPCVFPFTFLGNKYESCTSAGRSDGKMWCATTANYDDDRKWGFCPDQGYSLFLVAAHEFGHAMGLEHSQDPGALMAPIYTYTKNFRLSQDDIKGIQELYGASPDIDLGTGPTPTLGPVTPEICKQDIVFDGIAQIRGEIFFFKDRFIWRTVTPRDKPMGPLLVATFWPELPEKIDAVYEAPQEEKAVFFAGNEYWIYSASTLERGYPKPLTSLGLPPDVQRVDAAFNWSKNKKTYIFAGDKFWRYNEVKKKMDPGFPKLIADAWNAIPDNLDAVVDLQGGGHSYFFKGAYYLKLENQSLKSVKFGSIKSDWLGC
# Protocol: as §1, §2
# rhMMP-9 = target: T5, rhMMP-9 (Homo sapiens, UniProt P14780); assay: as above; assay type: biochemical; details: mean ± SD of three experiments
# T5 construct: purchased R&D Systems (Minneapolis, MN, USA)
# T5 sequence (P14780 107-707 limits assumed): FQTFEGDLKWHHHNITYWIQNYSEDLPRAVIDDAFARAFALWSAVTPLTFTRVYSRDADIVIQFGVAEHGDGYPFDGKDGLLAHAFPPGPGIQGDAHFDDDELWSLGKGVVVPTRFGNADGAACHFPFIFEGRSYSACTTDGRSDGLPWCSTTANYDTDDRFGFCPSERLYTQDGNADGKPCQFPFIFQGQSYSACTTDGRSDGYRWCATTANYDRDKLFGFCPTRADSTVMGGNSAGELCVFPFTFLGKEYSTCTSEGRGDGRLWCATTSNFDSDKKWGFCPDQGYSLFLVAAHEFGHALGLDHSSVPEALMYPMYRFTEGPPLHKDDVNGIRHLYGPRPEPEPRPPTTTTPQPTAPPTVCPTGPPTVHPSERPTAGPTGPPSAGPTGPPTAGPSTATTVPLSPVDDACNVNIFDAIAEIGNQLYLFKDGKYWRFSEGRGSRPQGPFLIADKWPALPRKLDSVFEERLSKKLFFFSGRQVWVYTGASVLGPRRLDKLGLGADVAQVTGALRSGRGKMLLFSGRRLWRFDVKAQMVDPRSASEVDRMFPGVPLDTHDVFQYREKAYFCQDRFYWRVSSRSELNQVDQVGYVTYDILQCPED
# Protocol: as §1, §2
Ki (rhMMP-7) [nM],Ki (rhMMP-12 [1]) [nM],Ki [3] [nM],solubility (Water solubility) [µg/mL],Compound,water solubility (in words) [2],also measured
,,8.6 ± 2.2,10000,"CC(C)CC1C(=O)NC(C(=O)NC(CCCNC(=N)N)C(=O)NCCNC(=O)c2ccc(NN)nc2)Cc2ccc(cc2)OCCCC1C(=O)NO [RYM1, (6 S,7 R,10 S)-N^10-((S)-5-guanidino-1-((2-(6-hydrazinylnicotinamido)ethyl)amino)-1-oxopentan-2-yl)-N^6-hydroxy-7-isobutyl-8-oxo-2-oxa-9-aza-1(1,4)-benzenacyclo undecaphane-6,10-dicarboxamide]",,Ki (rhMMP-12 [4]): 2.2 ± 0.5 nM
17.2 ± 0.1,1 ± 0.5,4.9 ± 1.3,10000,CNC(=O)C(CCCNC(=N)N)NC(=O)C1Cc2ccc(cc2)OCCCC(C(=O)NO)C(CC(C)C)C(=O)N1 (centres unmarked) [RYM],,"Ki (rhMMP-13; mean ± SD of three experiments, read-out: Ki rhMMP-13): 15.3 ± 5.4 nM; Ki (rhMMP-2): 5.8 ± 0.4 nM; Ki (rhMMP-9): 20.4 ± 2 nM"

# Further lines, the compound ahead of its results:
Compound,Ki (rhMMP-7) [nM],Ki (rhMMP-12 [1]) [nM],Ki [3] [nM],solubility (Water solubility) [µg/mL],water solubility (in words) [2],also measured
"CNC(=O)[C@H](Cc1c[nH]c2ccccc12)NC(=O)[C@@H](CC(=O)NO)CC(C)C [GM-6001, reference compound]",0.4,0.6,113 ± 4.1,,very poor water solubility,Ki (rhMMP-13): 0.3 nM
CC(C)CC1C(=O)NC(C(=O)NCc2ccc(CNC(=O)c3ccc(NN)nc3)cc2)Cc2ccc(cc2)OCCCC1C(=O)NO (centres unmarked) [RP805 precursor],,,,,poor water solubility,
"CNC(=O)[C@H](Cc1ccccc1)NC(=O)[C@H](CC(C)C)[C@H](CSc1cccs1)C(=O)NO [batimastat (BB-94), batimastat]",,,,,very poor water solubility,
